Here are results for 21 compounds from PubChem BioAssay (NCI).

Some test systems named below: A549 NSCLC; OVCAR-3 ovarian; MDA-N; TK-10 renal; LOX IMVI melanoma; HS 578T breast; SK-MEL-2 melanoma; SW-620 colon; OVCAR-5 ovarian; MALME-3M melanoma.
Common to all, as to experiment: inhibition of tumour cell growth, NCI panel, 48 h

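Where inhibition never reached the appropriate level, the endpoint shown equals the highest concentration tested. Otherwise, values were interpolated linearly from a five-concentration, 48-hour dose response in 96-well plates. Definition used: TGI = concentration required for complete inhibition of growth.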 Bounds are passed on as bounds.

As to `COc1nc2ccc(CNc3ccc(C(=O)O)cc3)cc2nc1OC`, the TGI with A549 NSCLC, with OVCAR-3 ovarian, with MDA-N, with TK-10 renal, in the assay on LOX IMVI melanoma and with HS 578T breast was more than 10 µM throughout. The TGI in the assay with SK-MEL-2 melanoma, in the assay on SW-620 colon, in the assay on OVCAR-5 ovarian and in the assay on MALME-3M melanoma was more than 10 µM throughout.

For `CC(C)(C)OC(=O)N1Cc2cc(O)ccc2C[C@H]1C(=O)O`, the TGI in the assay on A549 NSCLC, with OVCAR-3 ovarian, in the assay with MDA-N, with TK-10 renal, with LOX IMVI melanoma and with HS 578T breast was more than 100 µM in each case. The TGI in the assay with SK-MEL-2 melanoma, with SW-620 colon, with OVCAR-5 ovarian and with MALME-3M melanoma was more than 100 µM each time.

In the case of `COC(=O)C(Cc1ccccc1)NC(=O)c1ccc(CNC(=S)NCc2cccc(CNC(=S)NCc3ccccc3)c2)cc1` (stereo not drawn), the TGI in the assay on A549 NSCLC, in the assay on OVCAR-3 ovarian, in the assay with MDA-N, in the assay with TK-10 renal, with LOX IMVI melanoma and in the assay on HS 578T breast was more than 62.5 µM in each case. The TGI with SK-MEL-2 melanoma, in the assay on SW-620 colon, in the assay on OVCAR-5 ovarian and in the assay on MALME-3M melanoma was more than 62.5 µM each time.

As for `COc1cc(C2c3cc4c(cc3OC3(OC)COC(=O)C23)OCO4)cc(OC)c1OC` (stereo not drawn), the TGI in the assay with A549 NSCLC is more than 37.8 µM; with OVCAR-3 ovarian, 2.45 µM; in the assay with MDA-N it was 0.319 µM; in the assay on TK-10 renal, more than 100 µM; in the assay on LOX IMVI melanoma, 23.4 µM; in the assay on HS 578T breast, more than 100 µM. In addition, the TGI in the assay on SK-MEL-2 melanoma was more than 40.9 µM; in the assay with SW-620 colon it was more than 100 µM; in the assay on OVCAR-5 ovarian, more than 89.2 µM; in the assay with MALME-3M melanoma, more than 100 µM.

As to `COc1ccc(-c2nnc(-c3ccncc3)o2)cc1`, the TGI in the assay on A549 NSCLC, in the assay on OVCAR-3 ovarian, in the assay on MDA-N, in the assay on TK-10 renal, in the assay on LOX IMVI melanoma and in the assay with HS 578T breast was more than 100 µM throughout. Further, the TGI in the assay on SK-MEL-2 melanoma, in the assay with OVCAR-5 ovarian and with MALME-3M melanoma was more than 100 µM in each case.

For the compound `CCCC(=O)Nc1cc(/C=C/C(=O)N2CC(CCl)c3c2cc([N+](=O)[O-])c2ccccc32)n(C)c1` (stereo not drawn), the TGI in the assay on A549 NSCLC, in the assay on OVCAR-3 ovarian, with MDA-N, in the assay with TK-10 renal, with HS 578T breast and with SK-MEL-2 melanoma was more than 100 µM throughout. In addition, the TGI in the assay with SW-620 colon and in the assay with OVCAR-5 ovarian was more than 100 µM in each case.

Regarding `CC1CC(=O)Nc2ccc(N=NN(C)C)cc2N1C=O` (stereo not drawn), the TGI with A549 NSCLC, with OVCAR-3 ovarian, with MDA-N, with TK-10 renal, in the assay on HS 578T breast and in the assay with SK-MEL-2 melanoma was more than 100 µM each time. Moreover, the TGI in the assay on SW-620 colon, in the assay on OVCAR-5 ovarian and in the assay on MALME-3M melanoma was more than 100 µM throughout.

Consider `COC(=O)c1c(O)ccc2c1c1c(n2Cc2ccccn2)C(=O)c2ccccc2C1=O`, for which the TGI with A549 NSCLC was more than 100 µM; in the assay with OVCAR-3 ovarian it was 64.8 µM; in the assay on MDA-N, more than 100 µM; with TK-10 renal, more than 100 µM; with HS 578T breast it was more than 100 µM; in the assay with SK-MEL-2 melanoma, more than 100 µM. Besides, the results for the TGI in the assay on OVCAR-5 ovarian and with MALME-3M melanoma were more than 100 µM and 89.8 µM, respectively.

For the compound `COc1cc2c(cc1OC(=O)c1cc3ccccc3[nH]1)N=C[C@@H]1CCCN1C2=O`, the TGI with A549 NSCLC is 12 µM; in the assay with OVCAR-3 ovarian, 0.818 µM; in the assay on MDA-N, 0.375 µM; in the assay on TK-10 renal it was 13.8 µM; in the assay on HS 578T breast, more than 100 µM; with SK-MEL-2 melanoma, 0.55 µM. Moreover, the TGI in the assay with SW-620 colon worked out at 10.4 µM; in the assay on OVCAR-5 ovarian it was 0.59 µM; in the assay with MALME-3M melanoma it was 2.24 µM.

For `O=C(Cc1ccccc1)N=Nc1c(O)[nH]c2ccccc12`, the TGI in the assay on A549 NSCLC, in the assay with OVCAR-3 ovarian, with MDA-N, in the assay with TK-10 renal, in the assay with HS 578T breast and in the assay on SK-MEL-2 melanoma was more than 100 µM throughout. Also, the TGI in the assay with OVCAR-5 ovarian and in the assay with MALME-3M melanoma was more than 100 µM throughout.

On to `CC(C)(C)c1cc(/C=C/C(=O)CC(=O)/C=C/c2cc(C(C)(C)C)c(O)c(C(C)(C)C)c2)cc(C(C)(C)C)c1O`, for which the TGI with A549 NSCLC, in the assay with OVCAR-3 ovarian, in the assay on MDA-N, with TK-10 renal, in the assay on LOX IMVI melanoma and in the assay with HS 578T breast was more than 50 µM throughout. Besides, the TGI with SK-MEL-2 melanoma, with SW-620 colon and in the assay on OVCAR-5 ovarian was more than 50 µM each time.

On to `CC1=Nc2c(C#N)ncn2N=C(C)C1`, for which the TGI in the assay with A549 NSCLC, in the assay on OVCAR-3 ovarian, with MDA-N, in the assay on TK-10 renal, in the assay with LOX IMVI melanoma and in the assay on HS 578T breast was more than 100 µM throughout. For the same compound, the TGI with SK-MEL-2 melanoma, with SW-620 colon and in the assay on OVCAR-5 ovarian was more than 100 µM in each case.

With `O=C1c2ccccc2-c2nnc(-c3ccc(Cl)cc3)cc21`, the TGI in the assay with A549 NSCLC, with OVCAR-3 ovarian, in the assay with MDA-N, in the assay with LOX IMVI melanoma, in the assay with HS 578T breast and with SK-MEL-2 melanoma was more than 10 µM in each case. In addition, the TGI in the assay with SW-620 colon, in the assay on OVCAR-5 ovarian and in the assay on MALME-3M melanoma was more than 10 µM each time.

On to `O=c1oc2c/c(=C\c3ccccc3)c(=O)c3cccc1c3-2`, for which the TGI in the assay with A549 NSCLC is more than 100 µM; in the assay with OVCAR-3 ovarian it was 63 µM; in the assay on MDA-N, 46.1 µM; in the assay with TK-10 renal, more than 100 µM; in the assay on LOX IMVI melanoma it was 40.7 µM; in the assay with HS 578T breast, 73.2 µM. The TGI is 57.1 µM in the assay with SW-620 colon, more than 100 µM with OVCAR-5 ovarian and 52.7 µM in the assay with MALME-3M melanoma.

Regarding `COc1ccc(/C=N\NC(=O)Nc2cccc3ccccc23)cc1`, the TGI in the assay on A549 NSCLC was more than 100 µM; in the assay on MDA-N it was more than 100 µM; with TK-10 renal, 43.9 µM; in the assay with LOX IMVI melanoma, more than 100 µM; with HS 578T breast it was 61.2 µM; in the assay on SK-MEL-2 melanoma, 43.7 µM. For the same compound, the TGI in the assay on SW-620 colon, with OVCAR-5 ovarian and with MALME-3M melanoma was more than 100 µM each time.

As for `COC(=O)c1c(O)ccc2c1c1c(n2Cc2ccccc2OC)C(=O)c2ccccc2C1`, the TGI in the assay with A549 NSCLC, with OVCAR-3 ovarian, in the assay with MDA-N, with TK-10 renal, in the assay with LOX IMVI melanoma and in the assay with HS 578T breast was more than 100 µM in each case. For the same compound, the TGI in the assay on SK-MEL-2 melanoma, in the assay with SW-620 colon and in the assay on MALME-3M melanoma was more than 100 µM throughout.

As to `O=C(O)CN(CC(=O)O)Cc1ccn(-c2cccc(-n3ccc(CN(CC(=O)O)CC(=O)O)n3)n2)n1`, the TGI in the assay on A549 NSCLC, in the assay on OVCAR-3 ovarian, with MDA-N, with TK-10 renal, in the assay with HS 578T breast and in the assay on SK-MEL-2 melanoma was more than 100 µM in each case. Also, the TGI in the assay with SW-620 colon, in the assay on OVCAR-5 ovarian and in the assay on MALME-3M melanoma was more than 100 µM each time.

Consider `CO[C@H]1C[C@H](n2cc(C)c(=O)[nH]c2=O)O[C@@H]1CO`, for which the TGI with A549 NSCLC, in the assay on OVCAR-3 ovarian, in the assay with MDA-N, in the assay with TK-10 renal, in the assay with LOX IMVI melanoma and in the assay with HS 578T breast was more than 100 µM throughout. Also, the TGI in the assay on SW-620 colon, in the assay with OVCAR-5 ovarian and in the assay on MALME-3M melanoma was more than 100 µM throughout.

On to `Cc1cc2c(c(C(=O)NCCC(=O)N[C@@H](C)C(=O)OCc3ccccc3)c1)Oc1c(cc(C)cc1C(=O)NCCC(=O)N[C@@H](C)C(=O)OCc1ccccc1)S2`, for which the TGI with A549 NSCLC, with OVCAR-3 ovarian, with MDA-N, in the assay on HS 578T breast, with SK-MEL-2 melanoma and in the assay with SW-620 colon was more than 100 µM each time. The TGI with OVCAR-5 ovarian and in the assay with MALME-3M melanoma was more than 100 µM each time.

Regarding `Cc1cc2c(cc1-c1cc3c(cc1C)C(C(C)C)=C(O)C(=O)/C3=C\Nc1c(C)n(C)n(-c3ccccc3)c1=O)/C(=C/Nc1c(C)n(C)n(-c3ccccc3)c1=O)C(=O)C(O)=C2C(C)C`, the TGI in the assay with A549 NSCLC, with OVCAR-3 ovarian, with MDA-N, in the assay with HS 578T breast, in the assay with SK-MEL-2 melanoma and in the assay on SW-620 colon was more than 100 µM throughout. The TGI in the assay with OVCAR-5 ovarian and with MALME-3M melanoma was more than 100 µM each time.

As for `CCCCNC(=S)c1ccc(OC(=O)Nc2ccc(Cl)cc2)cc1`, the TGI in the assay with A549 NSCLC, with OVCAR-3 ovarian, with MDA-N, with LOX IMVI melanoma, in the assay on HS 578T breast and in the assay with SK-MEL-2 melanoma was more than 100 µM each time. In addition, the TGI in the assay on SW-620 colon, in the assay with OVCAR-5 ovarian and with MALME-3M melanoma was more than 100 µM each time.
